The NIST ThermoML archive (doi:10.1021/je2013704)

Assay: mn = molality of the nth substance listed, in mol/kg
Details: Liquid, Vibrating tube method

[Cl][Al]([Cl])[Cl] [aluminum chloride] + O
mass density [kg/m3]
Details | 900 kPa | 9900 kPa | 19900 kPa | 29900 kPa | 39900 kPa | 49900 kPa | 59900 kPa | 68400 kPa
298.12 K, m1 = 1 | 1105.53 | 1108.79 | 1112.3 | 1115.82 | 1119.28 | 1122.69 | 1125.95 | 1128.83
298.12 K, m1 = 2 | 1212.19 | 1214.96 | 1217.92 | 1220.94 | 1223.85 | 1226.72 | 1229.57 | 1232.02
323.07 K, m1 = 1 | 1096.76 | 1099.96 | 1103.44 | 1106.84 | 1110.31 | 1113.67 | 1116.93 | 1119.6
323.07 K, m1 = 2 | 1203.26 | 1206.02 | 1209.01 | 1211.9 | 1214.88 | 1217.8 | 1220.6 | 1222.88
348.04 K, m1 = 1 | 1085.66 | 1088.98 | 1092.48 | 1096.02 | 1099.44 | 1102.74 | 1106.07 | 1108.86
348.04 K, m1 = 2 | 1192.82 | 1196 | 1199.11 | 1202.1 | 1205.07 | 1207.92 | 1210.85 | 1213.26
372.99 K, m1 = 1 | 1072.64 | 1075.97 | 1079.63 | 1083.19 | 1086.72 | 1090.2 | 1093.58 | 1096.34
372.99 K, m1 = 2 | 1181.64 | 1184.73 | 1187.9 | 1191.11 | 1194.19 | 1197.22 | 1200.14 | 1202.66

[Ca+2].[Cl-].[Cl-] [calcium chloride] + O
mass density [kg/m3]
Details | 283.15 K | 298.12 K | 323.07 K | 348.04 K | 372.99 K | 397.97 K | 422.94 K | 447.94 K | 472.96 K
1050 kPa, m1 = 1 | 1087.02 | 1082.37 | 1072.02 | 1058.99 | 1043.73 | 1026.22 | 1006.8 | 985.31 | –
1050 kPa, m1 = 3 | – | 1225.07 | 1212.47 | 1198.77 | 1184.12 | 1167.99 | 1150.79 | 1132.22 | –
1050 kPa, m1 = 6 | – | 1388 | 1372.06 | 1356.18 | 1340.35 | 1324.03 | 1307.39 | 1290.23 | –
10020 kPa, m1 = 1 | 1090.65 | 1085.93 | 1075.48 | 1062.51 | 1047.42 | 1030.11 | 1011.09 | 989.96 | 966.77
10020 kPa, m1 = 3 | – | 1228.17 | 1215.47 | 1201.83 | 1187.2 | 1171.26 | 1154.33 | 1135.97 | 1116.32
10020 kPa, m1 = 6 | – | 1390.67 | 1374.67 | 1358.9 | 1343.09 | 1326.81 | 1310.4 | 1293.23 | 1275.65
19970 kPa, m1 = 1 | 1094.63 | 1089.7 | 1079.27 | 1066.31 | 1051.39 | 1034.38 | 1015.62 | 995.04 | 972.43
19970 kPa, m1 = 3 | – | 1231.3 | 1218.73 | 1205.15 | 1190.58 | 1174.82 | 1158.03 | 1139.99 | 1120.67
19970 kPa, m1 = 6 | – | 1393.43 | 1377.58 | 1361.82 | 1346.07 | 1329.91 | 1313.54 | 1296.61 | 1279.19
29900 kPa, m1 = 1 | 1098.56 | 1093.48 | 1082.99 | 1070.05 | 1055.27 | 1038.38 | 1020 | 999.9 | 977.79
29900 kPa, m1 = 3 | – | 1234.6 | 1221.98 | 1208.41 | 1193.94 | 1178.23 | 1161.68 | 1143.88 | 1124.82
29900 kPa, m1 = 6 | – | 1396.28 | 1380.48 | 1364.67 | 1349.03 | 1332.86 | 1316.63 | 1299.83 | 1282.53
39830 kPa, m1 = 1 | 1102.39 | 1097.27 | 1086.62 | 1073.75 | 1059.05 | 1042.42 | 1024.3 | 1004.57 | 983.04
39830 kPa, m1 = 3 | – | 1237.81 | 1225.08 | 1211.58 | 1197.14 | 1181.65 | 1165.21 | 1147.62 | 1129.01
39830 kPa, m1 = 6 | – | 1399.14 | 1383.27 | 1367.55 | 1351.92 | 1335.87 | 1319.7 | 1303.02 | 1285.96
49760 kPa, m1 = 1 | 1106.11 | 1100.95 | 1090.1 | 1077.29 | 1062.77 | 1046.36 | 1028.53 | 1009.07 | 988.08
49760 kPa, m1 = 3 | – | 1240.96 | 1228.11 | 1214.64 | 1200.38 | 1184.96 | 1168.72 | 1151.3 | 1132.99
49760 kPa, m1 = 6 | – | 1401.93 | 1385.94 | 1370.29 | 1354.76 | 1338.78 | 1322.71 | 1306.09 | 1289.19
59680 kPa, m1 = 1 | 1109.84 | 1104.52 | 1093.62 | 1080.87 | 1066.34 | 1050.19 | 1032.62 | 1013.53 | 992.91
59680 kPa, m1 = 3 | – | 1244 | 1231.21 | 1217.8 | 1203.46 | 1188.2 | 1172.12 | 1154.99 | 1136.86
59680 kPa, m1 = 6 | – | 1404.61 | 1388.68 | 1373.09 | 1357.57 | 1341.67 | 1325.64 | 1309.22 | 1292.45
68120 kPa, m1 = 1 | 1113.04 | 1107.46 | 1096.56 | 1083.78 | 1069.39 | 1053.29 | 1036 | 1017.15 | 996.86
68120 kPa, m1 = 3 | – | 1246.57 | 1233.72 | 1220.39 | 1206.1 | 1190.88 | 1174.94 | 1157.94 | 1140.04
68120 kPa, m1 = 6 | – | 1406.89 | 1390.9 | 1375.4 | 1359.88 | 1344 | 1328.12 | 1311.73 | 1295.04
